Reference: PMC11274883, “Anticancer Effect of Pt^[sequence], Pt^II5MESS, Pt^II56MESS and Their Platinum(IV)-Dihydroxy Derivatives against Triple-Negative Breast Cancer and Cisplatin-Resistant Colorectal Cancer” (Cancers, 2024)

Experiments:
Type in all cases: cell-based
MDA−MB−231 cells = test: Cellular uptake of Pt by ICP-MS; details: for Intracellular Concentration: MDA−MB−231, 3 µM; for Intracellular/extracellular ratio: MDA−MB−231, extracellular 3 µM
Method: (§1) A final concentration of 10^6 cells/well of MDA−MB−231 and HT29 cells were seeded in 6-well plates and incubated overnight to adhere. The cells were then treated with a final concentration of 3 µM of either Pt^II or Pt^IV complexes. After 0, 0.5, 1, 3, 6, 12, 24 or 30 h, the medium was removed, and the cells were washed three times with cold PBS and allowed to dry. Then, 400 µL of 69% HNO3 (Baseline grade nitric acid with PPB level reported impurities, Seastar Chemicals, Sidney, BC, Canada) was added to each well for 90 min to ensure complete digestion. […] Iridium 193 (^193Ir) was mixed online and introduced into the ICP-MS to check uptake efficiency and matrix interference. All ICP-MS parameters are described in Table S2 and elaborated in Method S3. The results represent an average of three different experiments run in triplicate (±SEM) and expressed as nmol/10^6 cells or µM/cell. Quantification of the cellular uptake of Pt was based on external standards (Certified Standard from Sigma-Aldrich, VIC, Australia) containing Internal standard Ir.
(§2) Method S3. Cellular Uptake of Platinum(II) and (IV) complexes
(§3) A final concentration of 10^6 cells/well of MDA−MB−231 and HT29 cells were seeded in 6-well plates and incubated overnight to adhere. The cells were then treated with a final concentration of 3 µM of either PtII or PtIV complexes. After 0, 0.5, 1, 3, 6, 12, 24 or 30 h, the medium was removed, and the cells were washed three times with cold PBS and allowed to dry. Then, 400 µL of 69% HNO3 (Baseline grade nitric acid with Instrument Quality Grade Nitric acid with ppb level reported impurities, Seastar Chemicals, Sidney, Canada) was added to each well for 90 mins to ensure complete digestion. The digests were then moved to trace -metal free 15 mL centrifuge tubes […]
(§4) concentration of 3.5-4%. Iridium 193 (193Ir), selected as internal standard, has similar first ionisation potential and mass to Platinum 195 (195Pt). A concentration of 50 ppb 193Ir in 2% HNO3 solution was chosen for the Perkin Elmer NexION® Inductively Coupled Plasma Mass Spectrometer (ICP-MS) as it produced a steady state signal intensity of 600-800K counts per second. Mixing and injection of sample and internal standard solution was carried out using an ESI 7 port Valve system (Elemental Scientific, USA). A high-quality Solvent Flex 2 stop pump with 0.38 mm ID tubing was used in conjunction with the ICP-MS’s Peristaltic pump set at 20 […]
(§5) standard both, at 0.25 mL/min) being 0.5 mL/min. The ICP-MS was tuned to high sensitivity settings to facilitate detection of low Pt concentrations in samples. This was done by adjusting the nebuliser gas flow between […] to achieve maximum Indium 115 intensity whilst maintaining an acceptable average oxide and doubly charged ratio of 1.64-2.24% and 1.17-1.69% respectively. The analysis method was set to peak hopping mode with a dwell time of […] and 45 sweeps through the mass spectrum per sample read. […]
(§6) peak integration time of 4500 milliseconds and enabled the collection of numerous data points for peak integration thereby increasing accuracy. The ICP-MS was tuned daily, and its performance optimised to a set of suppliers recommended settings. Analysis was only carried out when optimal oxide and doubly charged ratios with high ionic sensitivity was achieved. All ICP-MS parameters are described in Table S2. The results represent an average of three different experiments run in triplicates (± SEM) and expressed as nmol/106 cells or µM/cell. Quantification of the cellular uptake of Pt was based on external standards (Certified Standard from Sigma-Aldrich NSW, Australia) containing Internal standard Ir. […]

HT29 cells = test: Cellular uptake of Pt by ICP-MS; details: for Intracellular Concentration: HT29, 3 µM; for Intracellular/extracellular ratio: HT29, extracellular 3 µM
Method: as §1, §2, §3, §4, §5, §6

MCF10A = test: WST-1 cytotoxicity, 72 h; details: mean ± SEM
Method: Cells were seeded in 96-well flat-bottom culture plates at a concentration of 1000 cells per well. […] After 72 h, the medium was removed and replaced with new medium. The cell viability reagent WST-1 (10 µL, Roche Diagnostics, Indianapolis, IN, USA) was added to each well. After an hour, the absorbance was measured at 450 nm using a versatile microplate reader (Bio-strategy, Campbellfield, VIC, Australia). Three separate experiments were performed, each with n = 3 replicates. GraphPad prism 10 was used to calculate apparent IC50 values using the nonlinear regression model Y = Bottom + (Top-Bottom)/(1 + 10^(X-LogIC50)) where Top and bottom are plateaus in the y-axis (% survival). The R^2 value of the curve fits ranged from 0.8972 to 0.9794.

Structure (SMILES): N[C@H]1CCCC[C@@H]1N.O=[N+]([O-])[O-].O=[N+]([O-])[O-].[Pt+2].c1cnc2c(c1)ccc1cccnc12 [[Pt(1,10-phenanthroline)(1S,2S-diaminocyclohexane)](NO3)2]
- Intracellular Concentration (MDA−MB−231 cells; 0 h): 0.40 nmol/10^6 cells
- Intracellular Concentration (MDA−MB−231 cells; 0.5 h): 0.46 nmol/10^6 cells
- Intracellular Concentration (MDA−MB−231 cells; 1 h): 0.80 nmol/10^6 cells
- Intracellular Concentration (MDA−MB−231 cells; 3 h): 0.81 nmol/10^6 cells
- Intracellular Concentration (MDA−MB−231 cells; 6 h): 1.03 nmol/10^6 cells
- Intracellular Concentration (MDA−MB−231 cells; 12 h): 2.59 nmol/10^6 cells
- Intracellular Concentration (MDA−MB−231 cells; 24 h): 3.01 nmol/10^6 cells
- Intracellular Concentration (MDA−MB−231 cells; 30 h): 4.79 nmol/10^6 cells
- Intracellular/extracellular ratio (MDA−MB−231 cells; 0 h): 63.45
- Intracellular/extracellular ratio (MDA−MB−231 cells; 0.5 h): 72.01
- Intracellular/extracellular ratio (MDA−MB−231 cells; 1 h): 126.21
- Intracellular/extracellular ratio (MDA−MB−231 cells; 3 h): 127.55
- Intracellular/extracellular ratio (MDA−MB−231 cells; 6 h): 161.09
- Intracellular/extracellular ratio (MDA−MB−231 cells; 12 h): 407.32
- Intracellular/extracellular ratio (MDA−MB−231 cells; 24 h): 473.33
- Intracellular/extracellular ratio (MDA−MB−231 cells; 30 h): 752.93
- Intracellular Concentration (HT29 cells; 0 h): 0.61 nmol/10^6 cells
- Intracellular Concentration (HT29 cells; 0.5 h): 0.85 nmol/10^6 cells
- Intracellular Concentration (HT29 cells; 1 h): 0.72 nmol/10^6 cells
- Intracellular Concentration (HT29 cells; 3 h): 2.77 nmol/10^6 cells
- Intracellular Concentration (HT29 cells; 6 h): 5.95 nmol/10^6 cells
- Intracellular Concentration (HT29 cells; 12 h): 12.59 nmol/10^6 cells
- Intracellular Concentration (HT29 cells; 24 h): 15.26 nmol/10^6 cells
- Intracellular Concentration (HT29 cells; 30 h): 16.99 nmol/10^6 cells
- Intracellular/extracellular ratio (HT29 cells; 0 h): 95.39
- Intracellular/extracellular ratio (HT29 cells; 0.5 h): 133.55
- Intracellular/extracellular ratio (HT29 cells; 1 h): 112.44
- Intracellular/extracellular ratio (HT29 cells; 3 h): 435.59
- Intracellular/extracellular ratio (HT29 cells; 6 h): 935.29
- Intracellular/extracellular ratio (HT29 cells; 12 h): 1979.17
- Intracellular/extracellular ratio (HT29 cells; 24 h): 2397.59
- IC50 (MCF10A): 3.49 ± 1.39 µM
